According to US12281363B2, “Methods for detecting antiviral-drug resistant virus” (Secretary of State for Health and Social Care, priority 2018, dated 2025):
Like-named read-outs stand apart in the source and are kept apart here.

Tested on: HSV-1
Experiment: Plaque reduction assay, HSV-1 clinical isolates on Vero cells
Format: cell-based
Details: Human alphaherpesvirus 1, Vero
Excerpt: Viral isolates were used to infect a sub-confluent monolayer of Vero cells at a concentration of 75 or 50 plaque forming units (PFU) per well for HSV-1 and HSV-2, respectively. […] CMC medium typically used to create a semisolid interface and prevents indiscrimate viral spreading. Other materials (e.g. agar) may also be used to create this interface.
Cells were fixed with 10% formalin and stained with crystal violet before enumeration of the plaques (microscopic observation or use of fluorescent antibodies for detection is also suitable). The data obtained from these experiments were then expressed as percent inhibition of viral infectivity relative to the no drug control.
Definitions of phenotypic drug susceptibility classification as sensitive or resistant were as follows: ACV, <3 μM or >40 μM; PCV, <10 μM or >40 μM; CDV, <24 μM or >30 μM; FOS, <250 μM or >400 μM; and ACV, <6.5 μM or >40 μM; PCV, <38 μM or >40 μM; FOS, <250 μM or >400 μM for HSV-1 and HSV-2, respectively. Any IC50 values falling in between these sensitive and resistant cut-offs were reported as intermediate resistance.
The phenotype (i.e. reactivity to a drug) of the virus was characterised by the plaque reduction assay as described above.

`O=C(O)P(=O)(O)O` [Foscarnet, foscarnet] was tested, and the IC50 (isolate HPG033, HSV-1 TK I358L (1072A>C), also TK T287M, read-out: Drug susceptibility (IC50 value)) was 88.3 µM, the IC50 (isolate HPG033, HSV-1 TK I358L (1072A>C), also TK T287M, read-out: Drug susceptibility Foscarnet (FOS)) was under 250 µM and the IC50 (isolate HPG033, HSV-1 pol N1046T (3137A>C), also TK T287M, pol A1169T, read-out: Drug susceptibility (IC50 value)) was 88.3 µM. For the same compound, the IC50 (isolate HPG033, HSV-1 pol N1046T (3137A>C), also TK T287M, pol A1169T, read-out: Drug susceptibility Foscarnet (FOS)) was under 250 µM, the IC50 (isolate HPG035, HSV-1 pol S239L (716C>T), also pol S724N, read-out: Drug susceptibility (IC50 value)) was 701 µM and the IC50 (isolate HPG035, HSV-1 pol S239L (716C>T), also pol S724N, read-out: Drug susceptibility Foscarnet (FOS)) was over 400 µM. It also gave an IC50 (isolate HPG037, HSV-1 TK L69M (205>A), also TK Y239H, read-out: Drug susceptibility Foscarnet (FOS)) of under 250 µM, an IC50 (isolate HPG037, HSV-1 TK R256W (766C>T), read-out: Drug susceptibility (IC50 value)) of 80 µM and an IC50 (isolate HPG037, HSV-1 TK R256W (766C>T), read-out: Drug susceptibility Foscarnet (FOS)) of under 250 µM. The IC50 (isolate HPG037, HSV-1 TK Y239H (715T>C), read-out: Drug susceptibility (IC50 value)) was 80 µM, the IC50 (isolate HPG037, HSV-1 TK Y239H (715T>C), read-out: Drug susceptibility Foscarnet (FOS)) was under 250 µM and the IC50 (isolate HPG039, HSV-1 TK 85* or H58fs (169delC, 170delC, 171delC, or 172delC), read-out: Drug susceptibility (IC50 value)) was 59.8 µM. The IC50 (isolate HPG039, HSV-1 TK 85* or H58fs (169delC, 170delC, 171delC, or 172delC), read-out: Drug susceptibility Foscarnet (FOS)) was under 250 µM, the IC50 (isolate HPG040, HSV-1 pol S911N (2732G>A), also TK deletion (C) nt 896-900, pol A1169T, read-out: Drug susceptibility (IC50 value)) was 137 µM and the IC50 (isolate HPG040, HSV-1 pol S911N (2732G>A), also TK deletion (C) nt 896-900, pol A1169T, read-out: Drug susceptibility Foscarnet (FOS)) was under 250 µM. For the same compound, the IC50 (isolate HPG041, HSV-1 pol S911N (2732G>A), also pol A1169T, read-out: Drug susceptibility (IC50 value)) was 89.5 µM, the IC50 (isolate HPG041, HSV-1 pol S911N (2732G>A), also pol A1169T, read-out: Drug susceptibility Foscarnet (FOS)) was under 250 µM and the IC50 (isolate HPG042, HSV-1 pol A972V (2915C>T), also TK deletion (C) nt 881-885, pol A1169T, read-out: Drug susceptibility (IC50 value)) was 60.7 µM. For the same compound, the IC50 (isolate HPG042, HSV-1 pol A972V (2915C>T), also TK deletion (C) nt 881-885, pol A1169T, read-out: Drug susceptibility Foscarnet (FOS)) was under 250 µM, the IC50 (isolate HPG042, HSV-1 pol G22R (64G>A), also TK deletion (C) nt 881-885, pol A1169T, read-out: Drug susceptibility (IC50 value)) was 60.7 µM and the IC50 (isolate HPG042, HSV-1 pol G22R (64G>A), also TK deletion (C) nt 881-885, pol A1169T, read-out: Drug susceptibility Foscarnet (FOS)) was under 250 µM. The IC50 (isolate HPG043, HSV-1 TK 183* (437_438insA), read-out: Drug susceptibility (IC50 value)) was 69 µM, the IC50 (isolate HPG043, HSV-1 TK 183* (437_438insA), read-out: Drug susceptibility Foscarnet (FOS)) was under 250 µM and the IC50 (isolate HPG045, HSV-1 TK L49R (146T>G), read-out: Drug susceptibility (IC50 value)) was 75 µM. For the same compound, the IC50 (isolate HPG045, HSV-1 TK L49R (146T>G), read-out: Drug susceptibility Foscarnet (FOS)) was under 250 µM, the IC50 (isolate HPG045, HSV-1 pol L419I (1255C>A), also TK L49R, pol A1169T, read-out: Drug susceptibility (IC50 value)) was 75 µM and the IC50 (isolate HPG045, HSV-1 pol L419I (1255C>A), also TK L49R, pol A1169T, read-out: Drug susceptibility Foscarnet (FOS)) was under 250 µM. For the same compound, the IC50 (isolate HPG046, HSV-1 TK I166N (497T>A), read-out: Drug susceptibility (IC50 value)) was under 50 µM, the IC50 (isolate HPG046, HSV-1 TK I166N (497T>A), read-out: Drug susceptibility Foscarnet (FOS)) was under 250 µM and the IC50 (isolate HPG047, HSV-1 pol E680 (2039A>C), also TK deletion (C) nt 548-553, pol A1169T, read-out: Drug susceptibility Foscarnet (FOS)) was under 250 µM. For the same compound, the IC50 (isolate HPG050, HSV-1 TK Q34* (100C>T), read-out: Drug susceptibility (IC50 value)) was 169 µM, the IC50 (isolate HPG050, HSV-1 TK Q34* (100C>T), read-out: Drug susceptibility Foscarnet (FOS)) was under 250 µM and the IC50 (isolate HPG051, HSV-1 pol D83A (248A>C), also TK R176stop, read-out: Drug susceptibility (IC50 value)) was 82.6 µM. It also gave an IC50 (isolate HPG051, HSV-1 pol D83A (248A>C), also TK R176stop, read-out: Drug susceptibility Foscarnet (FOS)) of under 250 µM, an IC50 (isolate HPG052, HSV-1 TK Q34* (100C>T), read-out: Drug susceptibility (IC50 value)) of 76.9 µM and an IC50 (isolate HPG052, HSV-1 TK Q34* (100C>T), read-out: Drug susceptibility Foscarnet (FOS)) of under 250 µM. The IC50 (isolate HPG053, HSV-1 pol L802R + A834S (2405T>G, 2500G>T), also TK R176W, read-out: Drug susceptibility Foscarnet (FOS)) was over 400 µM, the IC50 (isolate HPG053, HSV-1 pol S911N (2732G>A), also TK R176W, pol A1169T, read-out: Drug susceptibility (IC50 value)) was 626 µM and the IC50 (isolate HPG053, HSV-1 pol S911N (2732G>A), also TK R176W, pol A1169T, read-out: Drug susceptibility Foscarnet (FOS)) was over 400 µM. The IC50 (isolate HPG054, HSV-1 pol E992K (2974G>A), also TK insert (G) nt 430-436, pol A1169T, read-out: Drug susceptibility (IC50 value)) was 52.9 µM, the IC50 (isolate HPG054, HSV-1 pol E992K (2974G>A), also TK insert (G) nt 430-436, pol A1169T, read-out: Drug susceptibility Foscarnet (FOS)) was under 250 µM and the IC50 (isolate HPG055, HSV-1 TK V204G (611T>G), also pol A1169AT, read-out: Drug susceptibility (IC50 value)) was under 50 µM. It also gave an IC50 (isolate HPG055, HSV-1 TK V204G (611T>G), also pol A1169AT, read-out: Drug susceptibility Foscarnet (FOS)) of under 250 µM, an IC50 (read-out: Drug susceptibility (IC50 value), isolate HPG005, HSV-1 TK A192T (574G>A)) of under 50 µM and an IC50 (read-out: Drug susceptibility (IC50 value), isolate HPG006, HSV-1 pol G121S (361G>A), also a TK resistance mutation (footnote a)) of 115 µM. It also gave an IC50 (read-out: Drug susceptibility (IC50 value), isolate HPG012, HSV-1 pol G985E (2954G>A), also TK A93V) of 92.1 µM, an IC50 (read-out: Drug susceptibility (IC50 value), isolate HPG016, HSV-1 pol A1169T (3505G>A)) of 154 µM and an IC50 (read-out: Drug susceptibility (IC50 value), isolate HPG037, HSV-1 TK L69M (205>A), also TK Y239H) of 80 µM. The IC50 (read-out: Drug susceptibility (IC50 value), isolate HPG042, HSV-1 TK frameshift (881delC to 885delC)) was 60.7 µM, the IC50 (read-out: Drug susceptibility (IC50 value), isolate HPG047, HSV-1 pol E680 (2039A>C), also TK deletion (C) nt 548-553, pol A1169T) was 92.4 µM and the IC50 (read-out: Drug susceptibility Foscarnet (FOS), isolate HPG005, HSV-1 TK A192T (574G>A)) was under 250 µM. For the same compound, the IC50 (read-out: Drug susceptibility Foscarnet (FOS), isolate HPG006, HSV-1 pol G121S (361G>A), also a TK resistance mutation (footnote a)) was under 250 µM, the IC50 (read-out: Drug susceptibility Foscarnet (FOS), isolate HPG012, HSV-1 pol G985E (2954G>A), also TK A93V) was under 250 µM and the IC50 (read-out: Drug susceptibility Foscarnet (FOS), isolate HPG016, HSV-1 pol A1169T (3505G>A)) was under 250 µM. For the same compound, the IC50 (read-out: Drug susceptibility Foscarnet (FOS), isolate HPG042, HSV-1 TK frameshift (881delC to 885delC)) was under 250 µM.
